Reference: PMC2676060 (European journal of medicinal chemistry, 2008)

Experiments:
[1] = target: recombinant HIV-1 RT enzyme (p66/51 dimer) (Human immunodeficiency virus type 1 group M subtype B, UniProt P03366); test: RT inhibition assay, poly; assay type: biochemical; conditions: for HIV-1 RT inhibition (in words): poly(rC)·oligo(dG) as template primer
[2] = cited from earlier work

| SMILES | HIV-1 RT inhibition (in words) [1] | other results |
| --- | --- | --- |
| COc1noc2c(C)cc(C(=CCCN3CCOC3=O)c3cc(C)c4onc(OC)c4c3)cc12 [Compound 7, 3-[4,4-Bis-(3-methoxy-7-methyl-benzo[d]isoxazol-5-yl)-but-3-enyl]-oxazolidin-2-one] | active | – |
| COC(=O)c1cc(/C(=C/CCN2CCOC2=O)c2cc(C)c3onc(OC)c3c2)cc(Cl)c1OC [Compound 6, (E)-3-Chloro-2-methoxy-5-[1-(3-methoxy-7-methyl-benzo[d]isoxazol-5-yl)-4-(2-oxoxazolidin-3-yl)-but-1-enyl]-benzoic acid methyl ester] | much less active | – |
| COc1noc2c(C)cc(/C(=C\CCN3CCOC3=O)c3cc(C)c4oc(=O)n(C)c4c3)cc12 [Compound 8, (E)-5-[1-(3-Methoxy-7-methylbenzo[d]isoxazol-5-yl)-4-(2-oxoxazolidin-3-yl)-but-1-enyl]-3,7-dimethyl-3H-benzoxazol-2-one] | much less active | – |
| COC(=O)CCC/C=C(/c1cc(C)c2onc(OC)c2c1)c1cc(C)c2oc(=O)n(C)c2c1 [Compound 2] | – | stability in rat blood plasma (in words) [2]: unstable |
| COC(=O)CCC/C=C(\c1cc(F)cc(C(F)(F)F)c1)c1cc(C)c2onc(OC)c2c1 [Compound 1] | – | IC50 [1]: 900 nM |
| COc1noc2c(C)cc(/C(=C\CCN3CCOC3=O)c3cccc(C#N)c3)cc12 [Compound 9, (Z)-3-[1-(3-Methoxy-7-methylbenzo[d]isoxazol-5-yl)-4-(2-oxoxazolidin-3-yl)-but-1-enyl]-benzonitrile] | much less active | – |
| COC(=O)c1cc(/C(=C/CCN2CCOC2=O)c2cc(C)c3onc(OC)c3c2)cc(C)c1OC [Compound 5, (E)-2-Methoxy-5-[1-(3-methoxy-7-methylbenzo[d]isoxazol-5-yl)-4-(2-oxoxazolidin-3-yl)-but-1-enyl]-3-methylbenzoic acid methyl ester] | much less active | – |
| COC(=O)CCC/C=C(\c1cc(C)c(OC)c(C(=O)OC)c1)c1cc(C)c2onc(OC)c2c1 [Compound 3, (Z)-2-Methoxy-5-[5-methoxycarbonyl-1-(3-methoxy-7-methylbenzo[d]isoxazol-5-yl)-pent-1-enyl]-3-methylbenzoic acid methyl ester] | – | IC50 [1]: 910 nM |
